{"source": "patent US7109193B2", "about": "“Tricyclic diazepines tocolytic oxytocin receptor antagonists” (Wyeth, priority 2001, dated 2006)", "target": "T1, human oxytocin receptor (Homo sapiens, UniProt P30559)", "T1 construct": "host or cells: CHO cells (pcDNA3.1 vector)", "T1 sequence (P30559 1-389)": "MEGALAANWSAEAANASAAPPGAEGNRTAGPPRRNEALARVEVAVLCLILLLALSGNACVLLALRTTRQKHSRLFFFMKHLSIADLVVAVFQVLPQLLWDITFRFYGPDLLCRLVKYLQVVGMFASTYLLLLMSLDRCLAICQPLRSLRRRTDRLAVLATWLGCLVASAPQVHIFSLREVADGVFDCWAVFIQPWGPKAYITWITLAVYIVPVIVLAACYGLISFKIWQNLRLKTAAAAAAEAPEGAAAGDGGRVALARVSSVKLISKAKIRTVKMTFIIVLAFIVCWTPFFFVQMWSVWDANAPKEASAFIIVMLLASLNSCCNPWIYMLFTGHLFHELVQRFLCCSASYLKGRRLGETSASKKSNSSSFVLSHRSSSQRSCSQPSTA", "test": "Oxytocin binding in Chinese Hamster Ovary cell membranes expressing human oxytocin receptors", "conditions": "100 nM, CHO cell membranes, [3H]oxytocin, values without parentheses; for inhibition at 0.1 µM: read-out: OT % inhibition @ 100% nM", "experimental": "Oxytocin Binding in Chinese Hamster Ovary Cell Membranes Expressing Human Oxytocin Receptors\nThe trypsin is removed by aspiration and the cells dislodged by tapping. Cell Culture medium (e.g. 30 mL for 1:30 split) is immediately added and mixed well to inactivate trypsin. 1 mL of detached cells is added to new culture flasks containing fresh Cell Culture medium (e.g. into 25 mL per T-150 flask), and mixed gently. The cells are incubated at 37° C. in 5% CO2. The medium is changed at 3 to 4 days interval (or as appropriate). […] All steps are done under sterile conditions. B. Membrane Preparation: The cells are washed twice gently with Hank's Balanced Salt solution (e.g., use 10 mL per T-150 flask). […] The contents are transferred to centrifuge tubes (50 mL size) kept in ice bath. All subsequent steps are done at 4° C. The tubes are centrifuged at 300×g for 15 min (1380 rpm on SORVAL, Model RT6000D, using rotor for 50 mL tubes). The supernatant is discarded and the cells suspended in homogenizing buffer (10 mM Tris-HCl containing 0.25 M sucrose and 1 mM EDTA, pH 7.4) ensuring that the volume of the buffer is about ten times the volume of the cell pellet. The cells are pooled into a centrifuge tube (50 mL) and homogenized with a Polytron at setting 6 for 10 sec. The homogenate is transferred into a Potter-Elvjehm homogenizer and homogenized with 3 strokes. The homogenate is centrifuged at 1500×g for 10 min at 4° C. (3100 rpm using SORVAL, model RT6000D, using rotor for 50 mL tubes). The pellet is discarded. The supernatant is centrifuged at 100,000×g for 60 min. at 4° C. (Beckman L8-80M ultracentrifuge; spin at 37,500 rpm with rotor type 70 Ti for 50 mL tubes; 38,000 rpm with type 80Ti for 15 mL tubes; or 35,800 rpm with rotor type 45Ti). The supernantant is discarded and the pellet suspended in 3 to 4 mL of Tris buffer (50 mM TRIS-HCl, pH 7.4). The protein content is estimated by the Bradford or Lowry method. The volume of the membrane suspension is adjusted with the membrane buffer (50 mM Tris-HCl containing 0.1% BSA and 0.1 mM PMSF) to give 3.0 mg/mL (or as appropriate) of protein. The membranes are aliquoted and stored at −70° C. C. Radioligand Binding Assay: In wells of a 96-well format microtiter plate, is added 90, 110 or 130 μL (to make up a final volume of 200 μL) of assay buffer containing 50 mM of Tris-HCl (pH 7.4), […], 1 mg % aprotinin, 1 mg % leupeptin, 2 mg % 1,10-phenanthroline, 10 mg % trypsin inhibitor, and 0.1 mM PMSF. The inhibitors are added on the day of the experiment. The components are mixed at room temperature, and then kept in ice bath following adjustment of the pH to 7.4. […] For oxytocin and other peptide ligands, 20 μL of 50% DMSO is added and the assay buffer volume is adjusted accordingly. To each well is added 50 μL of frozen membrane suspension thawed immediately prior to use and diluted in assay buffer to the required concentration (equivalent to 25 to 50 μg of protein/well as needed). 20 μL of 8 nM [^3H]oxytocin in the assay buffer, prepared just before use is added and incubated at room temperature for 60 min. shaking the plate on a mechanical shaker for the first 15 min. The incubation is stopped by rapid filtration of the plate contents followed by washing with ice-cold buffer (50 mM Tris-HCl, pH 7.4) using a cell harvester (Tomtek and Printed filtermat-B filter paper). The filter paper is thoroughly dried (7–12 min. in a microwave oven) and impregnated with MeltiLex B/H melt-on scintillation wax sheets and the radioactivity counted in a betaplate scintillation counter.\nBinding data is either reported as percent inhibition at a certain concentration or if an IC50 was calculated, as a nanomolar concentration.", "data": [{"molecule": "Cc1ccccc1-c1ccc(C(=O)N2Cc3ccc(C(=O)N4CCC[C@H]4CN4CCCC4)n3Cc3ccccc32)cc1", "note": "[Example 264, {10-[(2′-Methyl[1,1′-biphenyl]-4-yl)carbonyl]-10,11-dihydro-5H-pyrrolo[2,1-c][1,4]benzodiazepin-3-yl}[(2S)-2-(1-pyrrolidinylmethyl)pyrrolidinyl]methanone]", "values": [{"measurement": "OT % inhibition @ 100% nM", "value": 94, "unit": "%"}]}, {"molecule": "COc1ccccc1-c1ccc(C(=O)N2Cc3ccc(C(=O)N4CCC[C@H]4CN4CCCC4)n3Cc3ccccc32)cc1C", "note": "[Example 259, {10-[(2′-Methoxy-2-methyl[1,1′-biphenyl]-4-yl)carbonyl]-10,11-dihydro-5H-pyrrolo[2,1-c][1,4]benzodiazepin-3-yl}[(2S)-2-(1-pyrrolidinylmethyl)pyrrolidinyl]methanone]", "values": [{"measurement": "OT % inhibition @ 100% nM", "value": 97, "unit": "%"}]}, {"molecule": "Cc1ccccc1-c1ccc(C(=O)N2Cc3ccc(C(=O)N4CCC(N5CCCC5)CC4)n3Cc3ccccc32)cc1C", "note": "[Example 138, {10-[(2,2′-Dimethyl[1,1′-biphenyl]-4-yl)carbonyl]-10,11-dihydro-5H-pyrrolo[2,1-c][1,4]benzodiazepin-3-yl}[4-(1-pyrrolidinyl)-1-piperidinyl]methanone]", "values": [{"measurement": "inhibition at 0.1 µM", "value": 95, "unit": "%"}]}, {"molecule": "CN(C)CCCN(C)C(=O)c1ccc2n1Cc1ccccc1N(C(=O)c1ccc(-c3cccc4ccccc34)cc1Cl)C2", "note": "[Example 109, 10-[2-Chloro-4-(1-naphthyl)benzoyl]-N-[3-(dimethylamino)propyl]-N-methyl-10,11-dihydro-5H-pyrrolo[2,1-c][1,4]benzodiazepine-3-carboxamide]", "values": [{"measurement": "inhibition at 0.1 µM", "value": 49, "unit": "%"}]}, {"molecule": "COc1cc(C(=O)N2Cc3ccc(C(=O)N4CCC[C@H]4CN4CCCC4)n3Cc3ccccc32)ccc1-n1c(C)ccc1C", "note": "[Example 321, {10-[4-(2,5-Dimethyl-1H-pyrrol-1-yl)-3-methoxybenzoyl]-10,11-dihydro-5H-pyrrolo[2,1-c][1,4]benzodiazepin-3-yl}[(2S)-2-(1-pyrrolidinylmethyl)pyrrolidinyl]methanone]", "values": [{"measurement": "OT % inhibition @ 100% nM", "value": 62, "unit": "%"}]}, {"molecule": "COc1ccccc1-c1ccc(C(=O)N2Cc3ccc(C(=O)N4CCC[C@H]4CN4CCCC4)n3Cc3ccccc32)cc1OC", "note": "[Example 269, {10-[(2,2′-Dimethoxy[1,1′-biphenyl]-4-yl)carbonyl]-10,11-dihydro-5H-pyrrolo[2,1-c][1,4]benzodiazepin-3-yl}[(2S)-2-(1-pyrrolidinylmethyl)pyrrolidinyl]methanone]", "values": [{"measurement": "OT % inhibition @ 100% nM", "value": 88, "unit": "%"}]}, {"molecule": "COc1cc(C(=O)N2Cc3ccc(C(=O)N4CC[C@@H](N(C)C)C4)n3Cc3ccccc32)ccc1-n1c(C)ccc1C", "note": "[Example 322, [(3R)-3-(Dimethylamino)pyrrolidinyl]{10-[4-(2,5-dimethyl-1H-pyrrol-1-yl)-3-methoxybenzoyl]-10,11-dihydro-5H-pyrrolo[2,1-c][1,4]benzodiazepin-3-yl}methanone]", "values": [{"measurement": "OT % inhibition @ 100% nM", "value": 66, "unit": "%"}]}, {"molecule": "{10-[(2,2′-Dimethoxy[1,1′-biphenyl]-4-yl)carbonyl]-10,11-dihydro-5H-pyrrolo[2,1-c][1,4]benzodiazepin-3-yl}(4-isopropyl-1-piperazinyl)methanone [Example 244]", "values": [{"measurement": "OT % inhibition @ 100% nM", "value": 68, "unit": "%"}]}, {"molecule": "COc1cc2c(cc1OC)N(C(=O)c1ccc(-c3ccccc3C(F)(F)F)c(C)c1)Cc1ccc(C(=O)N3CCC(=O)CC3)n1C2", "note": "[Example 14, 7,8-Dimethoxy-10-{[2-methyl-2′-(trifluoromethyl)-[1,1′-biphenyl]-4-yl]carbonyl}-[(10,11-dihydro-5H-pyrrolo[2,1-c][1,4]benzodiazepin-3-yl)carbonyl]-4-piperidinone]", "values": [{"measurement": "OT % inhibition @ 100% nM", "value": 9, "unit": "%"}]}, {"molecule": "COc1cccc(-c2cc(OC)c(C(=O)N3Cc4ccc(C(=O)N5CCC(N6CCCCC6)CC5)n4Cc4ccccc43)cc2Cl)c1", "note": "[Example 117, {10-[(6-Chloro-3-methoxy-3′-methoxy[1,1′-biphenyl]-4-yl)carbonyl]-10,11-dihydro-5H-pyrrolo[2,1-c][1,4]benzodiazepin-3-yl}[4-(1-piperidinyl)-1-piperidinyl]methanone]", "values": [{"measurement": "inhibition at 0.1 µM", "value": 70, "unit": "%"}]}, {"molecule": "COc1cc(C(=O)N2Cc3ccc(C(=O)NCCN4CCCCC4)n3Cc3ccccc32)ccc1-c1ccccc1C", "note": "[Example 154, 10-[(2-Methoxy-2′-methyl[1,1′-biphenyl]4-yl)carbonyl]-N-[2-(1-piperidinyl)ethyl]-10,11-dihydro-5H-pyrrolo[2,1-c][1,4]benzodiazepine-3-carboxamide]", "values": [{"measurement": "inhibition at 0.1 µM", "value": 54, "unit": "%"}]}, {"molecule": "Cc1ccccc1-c1ccc(C(=O)N2Cc3ccc(C(=O)NCCN4CCCCC4)n3Cc3ccccc32)cc1", "note": "[Example 153, 10-[(2′-Methyl[1,1′-biphenyl]-4-yl)carbonyl]-N-[2-(1-piperidinyl)ethyl]-10,11-dihydro-5H-pyrrolo[2,1-c][1,4]benzodiazepine-3-carboxamide]", "values": [{"measurement": "inhibition at 0.1 µM", "value": 60, "unit": "%"}]}, {"molecule": "COc1ccccc1-c1ccc(C(=O)N2Cc3ccc(C(=O)N4CCC(N5CCCC5)CC4)n3Cc3ccccc32)cc1OC", "note": "[Example 145, {10-[(2,2′-Dimethoxy[1,1′-biphenyl]4-yl)carbonyl]-10,11-dihydro-5H-pyrrolo[2,1-c][1,4]benzodiazepin-3-yl}[4-(1-pyrrolidinyl)-l-piperidinyl]methanone]", "values": [{"measurement": "OT % inhibition @ 100% nM", "value": 53, "unit": "%"}]}, {"molecule": "Cc1ccccc1-c1ccc(C(=O)N2Cc3ccc(C(=O)NCCN4CCCCC4)n3Cc3ccccc32)cc1C", "note": "[Example 150, 10-[(2,2′-Dimethyl[1,1′-biphenyl]-4-yl)carbonyl]-N-[2-(1-piperidinyl)ethyl]-10,11-dihydro-5H-pyrrolo[2,1-c][1,4]benzodiazepine-3-carboxamide]", "values": [{"measurement": "inhibition at 0.1 µM", "value": 75, "unit": "%"}]}, {"molecule": "COc1ccccc1-c1ccc(C(=O)N2Cc3ccc(C(=O)N4CCC(N5CCCC5)CC4)n3Cc3ccccc32)cc1C", "note": "[Example 137, {10-[(2′-Methoxy-2-methyl[1,1′-biphenyl]-4-yl)carbonyl]-10,11-dihydro-5H-pyrrolo[2,1-c][1,4]benzodiazepin-3-yl}[4-(1-pyrrolidinyl)-1-piperidinyl]methanone]", "values": [{"measurement": "inhibition at 0.1 µM", "value": 88, "unit": "%"}]}, {"molecule": "COc1cccc(-c2ccc(C(=O)N3Cc4ccc(C(=O)N5CCC[C@H]5CN5CCCC5)n4Cc4ccccc43)cc2OC)c1", "note": "[Example 270, {10-[(2,3′-Dimethoxy[1,1′-biphenyl]-4-yl)carbonyl]-10,11-dihydro-5H-pyrrolo[2,1-c][1,4]benzodiazepin-3-yl}[(2S)-2-(1-pyrrolidinylmethyl)pyrrolidinyl]methanone]", "values": [{"measurement": "OT % inhibition @ 100% nM", "value": 95, "unit": "%"}]}, {"molecule": "COc1cc(C(=O)N2Cc3ccc(C(=O)N4CC[C@@H](N(C)C)C4)n3Cc3ccccc32)ccc1-c1cccc2ccccc12", "note": "[Example 276, [(3R)-3-(Dimethylamino)pyrrolidinyl]{10-[3-methoxy-4-(1-naphthyl)benzoyl]-10,11-dihydro-5H-pyrrolo[2,1-c][1,4]benzodiazepin-3-yl}methanone]", "values": [{"measurement": "OT % inhibition @ 100% nM", "value": 74, "unit": "%"}]}]}
